Measurements published in US20230398205A1, “SARS-COV-2 IMMU[…] CONSTRUCTS AND USES THEREOF” (TScan Therapeutics, Inc., priority 2020, published 2023).
Read-outs that look alike come from different tables or passages of the source. Where no end group is shown, it is not given here.

Tests used:
Type in all cases: cell-based, human
[1] = tested on: memory CD8 T cells from convalescent COVID-19 patients
[2] = tested on: memory CD8+ T cells specific for A*02:01 epitopes; details: Allele A02
[3] = tested on: naïve CD8 T cells isolated from healthy donors; details: 10 days of expansion; tetramer staining; FIG. 14, FIG. 15

Sequence | % of Pts (Screen M+ 2SD) ([1]; Allele A01) | % of Pts (Tetramer) [2] | further results
DTDFVNEFY [DTD] | 40% | – | –
LLLDRLNQL [LLL] | – | 22.2% | % of Pts (Screen M+ 2SD) ([1]; Allele A02): 33.3%
LLYDANYFL [LLY] | – | 55.6% | –
NTCDGTTFTY [NTC] | 60% | – | –
YLQPRTFLL [YLQ] | – | – | expansion of peptide-specific T cells from the naïve T cell population [3]: induces an expansion of peptide-specific T cells
